According to ChEMBL document CHEMBL1146483, “Antitumor activity of bruceantin: an old drug with new promise” (J Nat Prod, 2004):
Converted amounts (≈) assume the structure as drawn.

What was measured:
RPMI-8226 [1] = experiment: Antitumor activity in human RPMI8226 cells xenografted in SCID mouse assessed as induction of apoptosis in peripheral proliferating areas at 5 to 12 mg mg/kg, ip administered every 3 days; type: functional
[2] = Cytotoxicity against human DHL6 cells by trypan blue exclusion method; type: functional, cell-based; conditions: SU-DHL-6
[3] = Cytotoxicity against human RS4:11 cells by trypan blue exclusion method; type: functional, cell-based
HL-60 [4] = experiment: Induction of apoptosis in human HL60 cells after 24 hrs by DAPI staining; type: functional, cell-based; conditions: HL-60, 24 h
RPMI-8226 [5] = experiment: Induction of apoptosis in human RPMI8226 cells after 24 hrs by DAPI staining; type: functional, cell-based; conditions: RPMI-8226, 24 h
NCI-H929 = experiment: Induction of apoptosis in human NCI-H929 cells after 24 hrs by DAPI staining; type: functional, cell-based; conditions: NCI-H929, 24 h
Kasumi 1 = experiment: Cytotoxicity against human Kasumi-1 cells by trypan blue exclusion method; type: functional, cell-based
[6] = Cytotoxicity against concanavalin-stimulated human lymphocytes cells assessed as cell viability at 50 ng/mL after 4 days by trypan blue exclusion method; type: cell-based, Lymphocyte; conditions: read-out: Activity
U-937 = experiment: Cytotoxicity against human U937 cells by trypan blue exclusion method; type: functional, cell-based
HL-60 [7] = experiment: Cytotoxicity against human HL60 cells by trypan blue exclusion method; type: functional, cell-based
K562 = experiment: Cytotoxicity against human K562 cells assessed as cell viability at 50 ng/mL after 4 days by trypan blue exclusion method; type: functional; conditions: K562, 96 h, read-out: Activity
REH = experiment: Cytotoxicity against human REH cells by trypan blue exclusion method; type: functional, cell-based
[8] = Cytotoxicity against human SUP-B13 cells by trypan blue exclusion method; type: functional, cell-based
NB-4 = experiment: Cytotoxicity against human NB4 cells by trypan blue exclusion method; type: functional, cell-based
U-266 = experiment: Induction of apoptosis in human U266 cells after 24 hrs by DAPI staining; type: functional, cell-based; conditions: U-266, 24 h
BV-173 = experiment: Cytotoxicity against human BV173 cells by trypan blue exclusion method; type: functional, cell-based
Daudi = experiment: Cytotoxicity against human Daudi cells by trypan blue exclusion method; type: functional, cell-based

With `COC(=O)[C@@]12OC[C@]34[C@H]([C@@H](O)[C@@H]1O)[C@@]1(C)CC(=O)C(O)=C(C)[C@@H]1C[C@H]3OC(=O)[C@H](OC(=O)/C=C(\C)C(C)C)[C@@H]24` [BRUCEANTIN] the Activity (RPMI-8226 [1]) was 36.6%, the IC50 [2] was < 0.015 µg/mL and the IC50 [3] was < 0.015 µg/mL. The IC50 (HL-60 [4]) was 12.2 nM, the IC50 (RPMI-8226 [5]) was 12.8 nM and the IC50 (NCI-H929) was 115 nM. The IC50 (Kasumi 1) was 0.02 µg/mL (≈ 0.0365 µM), the viability at 96 h, 50 ng/mL [6] was 90% and the IC50 (U-937) was < 0.015 µg/mL. It also gave an IC50 (HL-60 [7]) of 0.02 µg/mL (≈ 0.0365 µM), a viability at 0.05 µg/mL (K562) of 90% and an IC50 (REH) of 0.02 µg/mL (≈ 0.0365 µM). The IC50 [8] was < 0.015 µg/mL, the IC50 (NB-4) was < 0.015 µg/mL and the IC50 (U-266) was 49 nM. For the same molecule, the IC50 (BV-173) was < 0.015 µg/mL and the IC50 (Daudi) was < 0.015 µg/mL.
